According to patent US6096707A, “Integrin binding peptide and use thereof” (BioTie Therapies Ltd., priority 1997, dated 2000):
Positions of bridges follow the written chain, without caps; N, C: chain ends. Residues, ends and D or L forms follow the SMILES beside them.

Target: T1, human recombinant integrin α2I domain (rα2I) (Homo sapiens, UniProt P17301)
T1 construct: GST (glutathione S-transferase, pGEX2T) (N, cleaved yes); made in house; host or cells: E. coli BL21 (pJKα2I, pGEX2T backbone)
T1 sequence (P17301 153-368): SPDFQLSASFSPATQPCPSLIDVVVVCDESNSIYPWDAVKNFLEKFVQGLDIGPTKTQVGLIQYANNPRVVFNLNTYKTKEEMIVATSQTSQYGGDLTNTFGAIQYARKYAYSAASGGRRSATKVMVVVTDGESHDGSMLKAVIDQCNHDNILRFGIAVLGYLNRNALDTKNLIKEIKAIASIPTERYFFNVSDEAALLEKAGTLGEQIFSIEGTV
Assay type: binding
Description: A 96-well immunoplate (Maxisorp, Nunc) was coated by exposing the surface of its well to 0.1 ml of PBS containing 5 μg/cm^2 of the plate surface, type I collagen (bovine dermal, Cellon), type IV collagen (Sigma), laminin-1 (purified from basement membranes of the Engelbreth-Holm-Swarm mouse tumor, Collaborative Research), fibronectin (human plasma fibronectin, Boehringer Mannheim) or 3.3 μg/ml echovirus-1 or echovirus-7 for 12 h at +4° C. Alternatively peptides and B. jararaca venom (Sigma) were coated at various concentrations on 96-well amine binding plates (Costar) according to the manufacturer's instructions.
Residual protein absorption sites on all wells were blocked with 0.1% heat inactivated bovine serum albumin in PBS for 1 h at +37° C. Echoviruses 1 (Farouk strain) and 7 (Wallace) were obtained from the ATCC. The purified viruses were diluted in PBS containing 0.5 mM MgCl2 and stored at -70° C. until used. Europium labeled rα2I was added at a concentration of 500 ng/ml in PBS, 2 mM MgCl2, 1 mg/ml BSA to the coated wells and incubated for 3 h at +37° C. Wells were then washed three times with PBS, 2mM MgCl2. 0.1 ml Delfia enhancement solution (Wallac) was added to each well and europium signal was measured with fluorometry (Model 1232 Delfia, Wallac). […]

For C[C@@H]1NC(=O)[C@H](CC(N)=O)NC(=O)[C@H](CC(=O)O)NC(=O)[C@H](Cc2c[nH]cn2)NC(=O)[C@H](CCCCN)NC(=O)[C@H](CCCCN)NC(=O)[C@H](CCCNC(=N)N)NC(=O)[C@H]([C@@H](C)O)NC(=O)[C@@H](N)CSSC[C@@H](C(=O)O)NC(=O)[C@H](CCC(N)=O)NC1=O [229ox, CTRKKHDNAQC] (H-CTRKKHDNAQC-OH; disulfide 1-11), the “inhibition of rα2I binding to B. jararaca venom by peptide” value was “about 50%”.
